Data as given in publication PMC9920986 (Molecules, 2023).
Where two headings read alike, the source gives them in different places.

Tests used:
[1] = target: T1, human recombinant NRH:quinone oxidoreductase (NQO2) (Homo sapiens, UniProt P16083); assay: biochemical; settings: for inhibition at 10 µM: read-out: NQO2 Inhibition, %
T1 construct: purchased Sigma Q0380
T1 sequence (P16083 1-231): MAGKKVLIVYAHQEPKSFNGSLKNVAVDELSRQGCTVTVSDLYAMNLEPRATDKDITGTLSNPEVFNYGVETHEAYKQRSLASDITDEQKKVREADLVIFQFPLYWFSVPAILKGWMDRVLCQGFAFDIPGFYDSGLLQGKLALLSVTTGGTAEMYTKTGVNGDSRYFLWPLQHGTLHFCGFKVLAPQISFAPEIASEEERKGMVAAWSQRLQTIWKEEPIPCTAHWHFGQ
Experimental: The inhibition activity of all synthesized compounds at a concentration of 10 µM was preliminarily tested in vitro using human recombinant NRH:quinone oxidoreductase (NQO2).
The activity of recombinant human NQO2 (Sigma #Q0380, St. Louis, […], USA) was evaluated kinetically using menadione and N-benzyl-dihydronicotinamide (BNAH) as the substrate and co-substrate, respectively. All reagents and test compounds were dissolved in 50 mM Hepes-KOH (pH 7.4) containing 1 mM of β-octyl-D-glucopyranoside, 0.1 mg/mL BSA and 1 μM FAD. […] The solutions of the test compounds were pre-incubated for 5 min with 50 μL of human recombinant NQO2 (final concentration 42 ng/mL). Then, 25 μL of menadione was introduced at a final concentration of 100 μM. The reaction was started with 25 μL of 100 μM BNAH. The fluorescence of the co-substrate BNAH was followed at wavelengths of 370/440 nm at 37 °C using an Infinite M200 Pro microplate reader (Tecan, Grödig, Austria). The fluorescence data was fit according to a one-phase decay nonlinear regression to obtain slope values with Prism 8.0 (GraphPad Inc., San Diego, CA, USA). The activity in sample wells were normalized against negative control and enzyme-blank samples.

[2] = Antiproliferative assay (MTT colorimetric test, 72 h); assay type: cell-based; settings: human, n.a. = not active, read-out: A549, CC50
Source text: The cytotoxicity of the synthesized oxindoles was studied using the A549 cell line in which the levels of NQO2 are increased (Table 4). […] The cytotoxicity of the compounds may be due to the inhibition of other enzymes associated with the activation of apoptosis in cancer cells, for example GSK3b or tyrosine kinases, or with the general non-specific toxicity of these compounds. Thus, the influence of NQO2 on A549 cell viability has not been established.
The A549 cells were maintained in F12-K (Gibco, Paisley, UK) supplemented with 10% fetal bovine serum (FBS, Gibco, UK), penicillin (100 UI mL^−1), streptomycin (100 µg mL^−1) and GlutaMax (2 mM, Gibco, UK). All cells line were cultured under a humidified atmosphere of 95% air/5% CO2 at 37 °C. Subconfluent monolayers, in the log growth phase, were harvested by a brief treatment with TrypLE Express solution (Gibco, UK) in phosphate-buffered saline (PBS, Capricorn Scientific, Ebsdorfergrund, Germany) and washed three times in serum-free PBS. The number of viable cells was determined by trypan blue exclusion.
The effects of the synthesized compounds on cell viability were determined using the MTT colorimetric test. All examined cells were diluted with the growth medium to 3.5 × 10^4 cells per mL and the aliquots (7 × 10^3 cells per 200 μL) were placed in individual wells in 96-multiplates (Eppendorf, Germany) and incubated for 24 h. […] After incubation, the cells were then treated with 40 μL MTT solution (3-(4,5-dimethylthiazol-2-yl)-2,5-diphenyltetrazolium bromide, 5 mg mL^−1 in PBS) and incubated for 4 h. After an additional 4 h incubation, the medium with MTT was removed and DMSO (150 μL) was added to dissolve the formazan crystals. The plates were shaken for 10 min. The optical density of each well was determined at 560 nm using a microplate reader GloMax Multi+ (Promega, Madison, WI, USA). Each of the tested compounds was evaluated for cytotoxicity in three separate experiments.

[3] = recombinant human NQO2, 100 μM menadione, 100 μM BNAH, read-out: NQO2 IC50 ± SEM

Work on `CC(=O)Nc1ccc2c(c1)C(=Cc1ccc(O)cc1)C(=O)N2` [Compound 16, (E,Z)-3-(4-Hydroxybenzylidene)-5-acetamido-2-oxindole] yielded an IC50 [1, 3] of 0.99 ± 0.03 µM.

Work on `Cc1ccc(C(=O)CC2(O)C(=O)Nc3ccc(NC(=O)c4ccco4)cc32)cc1` (stereo not drawn) [Compound 51, 3-hydroxy-5-(2-furoylamino)-3-[2-(4-methylphenyl)-2-oxoethyl]-2-oxindole] yielded an IC50 [1] greater than 50 µM.

Compound `O=C1Nc2ccccc2C1=Cc1cccnc1` [Compound 7, 3-(3-pyridinylmethylidene)-2-oxindole] has an inhibition at 10 µM [1] of 59.2% and a CC50 at 72 h [2] of 67.5 ± 7.58 µM.

Work on `O=C1Nc2ccccc2C1=Cc1cccs1` [Compound 37, 3-(2-thienylmethylidene)-2-oxindole] yielded an inhibition at 10 µM [1] of 38.1% and a CC50 at 72 h [2] of 491 ± 19.9 µM.

`CN1C(=O)C(=Cc2ccc(O)cc2)c2ccccc21` [Compound 15, 3-(4-hydroxybenzylidene)-N-methyl-2-oxindole] gave an IC50 [1, 3] of 0.62 ± 0.04 µM.

With `COC(=O)Nc1ccc2c(c1)C(=Cc1ccc(Br)cc1)C(=O)N2` [Compound 32, 3-(4-bromobenzylidene)-5-(methoxycarbonylamino)-2-oxindole] the IC50 [1] was 0.61 ± 0.03 µM.

For `Cc1n[nH]cc1C=C1C(=O)Nc2ccccc21` [Compound 43, 3-((3-methyl-1H-pyrazol-4-yl)methylene)-2-oxindole], the IC50 [1] was 7.61 ± 0.19 µM and the CC50 at 72 h [2] was 219 µM.

`CCOc1ccc(/C=C2/C(=O)Nc3ccccc32)cc1` [Compound 22, (E)-3-(4-Ethoxybenzylidene)-2-oxindole] showed an IC50 [1, 3] greater than 50 µM.

For `CC(=O)Nc1ccc2c(c1)C(=Cc1ccccn1)C(=O)N2` [Compound 5, (E,Z)-3-(2-Pyridinylmethylidene)-5-acetamido-2-oxindole], the IC50 [1] was 41.1 ± 2.44 µM and the CC50 at 72 h [2] was 136 µM.

With `Cc1ccc(C(=O)CC2(O)C(=O)Nc3ccc(Br)cc32)cc1` (stereo not drawn) [Compound 49, 3-hydroxy-5-bromo-3-[2-(4-methylphenyl)-2-oxoethyl]-2-oxindole] the IC50 [1, 3] was greater than 50 µM.

`O=C1Nc2ccc(NC(=O)c3ccccc3)cc2C1=Cc1ccc([N+](=O)[O-])cc1` (mixture of isomers) [Compound 29, 5-benzoylamino-3-((4-nitrophenyl)methylene)-2-oxindole] gave an IC50 [1] greater than 50 µM.

With `COC(=O)CCn1cc(C=C2C(=O)Nc3ccccc32)cn1` [Compound 45, (E,Z)-3-(1-[2-(Methoxycarbonyl)ethyl]-1H-pyrazol-4-ylmethylidene)-2-oxindole] the IC50 [1] was greater than 50 µM.

With `CCOC(=O)c1[nH]ncc1C=C1C(=O)Nc2ccc([N+](=O)[O-])cc21` [Compound 40, 3-((5-ethoxycarbonyl-1H-pyrazol-4-yl)methylene)-5-nitro-2-oxindole] the IC50 [1] was 1.88 ± 0.08 µM.

In the case of `Cc1n[nH]c(C)c1C=C1C(=O)Nc2ccccc21` [Compound 42, 3-((3,5-dimethyl-1H-pyrazol-4-yl)methylene)-2-oxindole], the inhibition at 10 µM [1] is reported as 54.4%.

Compound `COc1cc(C=C2C(=O)Nc3ccc(NC(=O)c4ccccc4)cc32)cc(OC)c1O` [Compound 26, (E,Z)-3-(3,5-Dimethoxy-4-hydroxybenzylidene)-5-benzoylamino-2-oxindole] has an inhibition at 10 µM [1] of 40.5%.

Work on `O=C1Nc2ccc(Br)cc2C1=Cc1ccncc1` [Compound 11, 5-bromo-3-(4-pyridinylmethylidene)-2-oxindole] yielded an inhibition at 10 µM [1] of 41.9% and a CC50 at 72 h [2] of 22.3 ± 1.42 µM.

Compound `O=C1Nc2ccccc2C1=Cc1ccc([N+](=O)[O-])cc1` [Compound 27, 3-((4-nitrophenyl)methylene)-2-oxindole] has an IC50 [1] greater than 50 µM.

`O=C1Nc2ccc(NC(=O)c3ccccc3)cc2C1=Cc1ccc(O)cc1` [Compound 19, 3-(4-hydroxybenzylidene)-5-benzoylamino-2-oxindole] gave an inhibition at 10 µM [1] of 62.9% and a CC50 at 72 h [2] of 412.2 ± 3.98 µM.

Work on `O=c1c(O)c(-c2ccc(O)c(O)c2)oc2cc(O)cc(O)c12` [Quercetin, reference compound] yielded an IC50 [1, 3] of 0.08 ± 0.02 µM.

In the case of `O=C1Nc2ccc(Br)cc2C1=Cc1ccco1` [Compound 35, 5-bromo-3-(2-furylmethylidene)-2-oxindole], the IC50 [1] is reported as greater than 50 µM and the CC50 at 72 h [2] is reported as 449 ± 18.7 µM.

With `COc1ccc(C=C2C(=O)Nc3ccc(NC(=O)c4ccccc4)cc32)cc1` [Compound 21, (E,Z)-3-(4-Methoxybenzylidene)-5-benzoylamino-2-oxindole] the IC50 [1, 3] was greater than 50 µM and the CC50 at 72 h [2] was 42.3 ± 8.3 µM.

Compound `O=C1Nc2ccc([N+](=O)[O-])cc2C1=Cc1ccco1` [Compound 36, 5-nitro-3-(2-furylmethylidene)-2-oxindole] has an inhibition at 10 µM [1] of 59.5% and a CC50 at 72 h [2] of 329 ± 17 µM.

`COc1ccc(C(=O)CC2(O)C(=O)Nc3ccc(Br)cc32)cc1` (stereo not drawn) [Compound 50, 3-hydroxy-5-bromo-3-[2-(4-methoxyphenyl)-2-oxoethyl]-2-oxindole] showed an inhibition at 10 µM [1] of 78.8% and a CC50 at 72 h [2] of 474 ± 18.2 µM.

With `COc1cc(C=C2C(=O)Nc3ccccc32)cc(OC)c1OC` [Compound 23, (E,Z)-3-(3,4,5-Trimethoxybenzylidene)-2-oxindole] the IC50 [1, 3] was 1.6 ± 0.14 µM and the CC50 at 72 h [2] was 25.7 µM.

`O=C1Nc2ccc([N+](=O)[O-])cc2C1=Cc1cccnc1` [Compound 9, 5-nitro-3-(3-pyridinylmethylidene)-2-oxidole] gave an IC50 [1] greater than 50 µM and a CC50 at 72 h [2] of 429 ± 24 µM.

For `O=C1Nc2ccccc2/C1=C\c1ccccn1` [Compound 1, (E)-3-(2-pyridinylmethylidene)-2-oxindole], the IC50 [1] was greater than 50 µM and the CC50 at 72 h [2] was 48 ± 4.42 µM.

`COC(=O)Nc1ccc2c(c1)C(=Cc1ccc([N+](=O)[O-])cc1)C(=O)N2` [Compound 28, 3-(4-nitrobenzylidene)-5-(methoxycarbonylamino)-2-oxindole] showed an inhibition at 10 µM [1] of 74%.

For `Nc1ccc2c(c1)C(Cc1ccccn1)C(=O)N2` (stereo not drawn) [Compound 47, 3-(pyridin-2-ylmethyl)-5-amino-2-oxindole], the IC50 [1, 3] was greater than 50 µM.

Compound `O=C1Nc2ccccc2C1=Cc1ccco1` [Compound 34, 3-(2-furylmethylidene)-2-oxindole] has an inhibition at 10 µM [1] of 59.9% and a CC50 at 72 h [2] of 595 ± 25.4 µM.

Work on `COc1cc(C=C2C(=O)Nc3ccc(NC(C)=O)cc32)cc(OC)c1OC` [Compound 24, 3-(3,4,5-trimethoxybenzylidene)-5-acetylamino-2-oxindole] yielded an IC50 [1, 3] of 0.37 ± 0.01 µM and a CC50 at 72 h [2] of 149 ± 2.63 µM.

Work on `Nc1ccc(CC2C(=O)Nc3ccccc32)cc1` (stereo not drawn) [Compound 46, 3-(4-aminobenzyl)-2-oxindole] yielded an IC50 [1] greater than 50 µM.

For `COc1ccc2c(c1)C(O)(CC(=O)c1ccc(C)cc1)C(=O)N2` (stereo not drawn) [Compound 48, 3-hydroxy-5-methoxy-3-[2-(4-methylphenyl)-2-oxoethyl]-2-oxindole], the IC50 [1, 3] was greater than 50 µM.

Compound `O=C1Nc2ccc([N+](=O)[O-])cc2C1=Cc1ccncc1` [Compound 12, 5-nitro-3-(4-pyridinylmethylidene)-2-oxindole] has an IC50 [1, 3] greater than 50 µM.

`CN1C(=O)C(=Cc2ccccn2)c2ccccc21` [Compound 2, N-methyl-3-((pyridin-2-yl)methylene)-2-oxindole] showed an IC50 [1] of 16.78 ± 0.09 µM.

For `Cc1nn(-c2ccccc2)c(C)c1C=C1C(=O)Nc2ccccc21` [Compound 44, 3-((3,5-dimethyl-1-phenyl-1H-pyrazol-4-yl)methylene)-2-oxindole], the inhibition at 10 µM [1] was 43.6%.

For `CN(C)c1ccc(C=C2C(=O)Nc3ccccc32)cc1` [Compound 30, (E,Z)-3-(4-Dimethylaminobenzylidene)-2-oxindole], the IC50 [1] was greater than 50 µM.

`CCOC(=O)c1[nH]ncc1C=C1C(=O)Nc2ccccc21` [Compound 39, 3-((5-ethoxycarbonyl-1H-pyrazol-4-yl)methylene)-2-oxindole] showed a CC50 at 72 h [2] of 231 µM.

`O=C1Nc2ccc([N+](=O)[O-])cc2C1=Cc1ccccn1` [Compound 4, 5-nitro-3-(2-pyridinylmethylidene)-2-oxindole] gave an IC50 [1] greater than 50 µM.

Compound `Cn1cc(C=C2C(=O)Nc3ccccc32)cn1` [Compound 41, 3-((1-methyl-1H-pyrazol-4-yl)methylene)-2-oxindole] has an IC50 [1] of 9.4 ± 0.12 µM.
